Values quoted from earlier work as cited in patent publication US7393852B2, “Piperazine derivatives and methods of use” (Amgen Inc., priority 2003, dated 2008).
Peptide text beside a SMILES is read from it.

Structure (SMILES): NC(N)=NCCC[C@H](NC(=O)[C@H](Cc1ccccc1)NC(=O)[C@@H]1CCCN1C(=O)[C@H](CO)NC(=O)[C@H](Cc1ccccc1)NC(=O)CNC(=O)[C@@H]1CCCN1C(=O)[C@@H]1CCCN1C(=O)[C@@H](N)CCCN=C(N)N)C(=O)O [BK, Bradykinin] (H-RPPGFSPFR-OH)
- half-life of BK in plasma: approximately 17 seconds
